# According to the supplement of paper PMC4862054:
# Columns and labels:
# Assay in all cases: normalised response (% of control), CellTox Green; higher = less cell death (100 = DMSO, 0 = benzethonium chloride kill control)
# Settings in all cases: incubation time: 72 h
# BT-474 = system: BT-474
# Summary of the method: (§1)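 The table gives the normalised signal for a single concentration in each entry. Breast cancer cell lines were seeded (20 µl suspension) into 384-well plates holding compound at 5 concentrations in 10-fold steps over a compound-specific 10,000-fold range and incubated 72 h, then read for CellTox Green fluorescence (485/520 nm) and CellTiter-Glo luminescence. Normalisation on each plate used 0.1 % DMSO (100) and a positive kill control (0).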
# BT-549 = system: BT-549
# Summary of the method: as §1
# CAL-148 = system: CAL-148
# Summary of the method: as §1
# CAL-51 = system: CAL-51
# Summary of the method: as §1
# CAL-85-1 = system: CAL-85-1
# Summary of the method: as §1
# DU-4475 = system: DU-4475
# Summary of the method: as §1
# HCC1143 = system: HCC1143
# Summary of the method: as §1
# HCC1599 = system: HCC1599
# Summary of the method: as §1
# HCC1937 = system: HCC1937
# Summary of the method: as §1
# Hs578T = system: Hs578T
# Summary of the method: as §1
# MCF-10A = system: MCF-10A
# Summary of the method: as §1
# MDA-MB-436 = system: MDA-MB-436
# Summary of the method: as §1
# MDA-MB-453 = system: MDA-MB-453
# Summary of the method: as §1
# MFM-223 = system: MFM-223
# Summary of the method: as §1
SMILES,normalised response (BT-474) [%],normalised response (BT-549) [%],normalised response (CAL-148) [%],normalised response (CAL-51) [%],normalised response (CAL-85-1) [%],normalised response (DU-4475) [%],normalised response (HCC1143) [%],normalised response (HCC1599) [%],normalised response (HCC1937) [%],normalised response (Hs578T) [%],normalised response (MCF-10A) [%],normalised response (MDA-MB-436) [%],normalised response (MDA-MB-453) [%],normalised response (MFM-223) [%]
N#Cc1ccc(COC[C@H]2O[C@@H](n3c(NCc4ccc(Cl)c(Cl)c4)nc4c(N)ncnc43)[C@H](O)[C@@H]2O)cc1 (1000 nM),100,123,107,119,97.6,103,115,102,90.4,103,92.3,96.5,112,104
N#Cc1ccc(COC[C@H]2O[C@@H](n3c(NCc4ccc(Cl)c(Cl)c4)nc4c(N)ncnc43)[C@H](O)[C@@H]2O)cc1 (10000 nM),98.8,111,95.2,91.6,–,104,79.2,109,106,120,103,87.8,102,2.84
COc1cc(OC2CCN(C)CC2)ccc1Nc1ncc2c(n1)n(C1CCCC1)c(=O)n2C [AZ 3146] (1000 nM),101,120,90.9,51.4,103,97.9,87.6,92.5,88.2,97.5,99.3,86,109,101
COc1cc(OC2CCN(C)CC2)ccc1Nc1ncc2c(n1)n(C1CCCC1)c(=O)n2C [AZ 3146] (10000 nM),70.2,105,60.4,27.1,82.7,90.2,86.7,53.3,-6.06,98.7,71,47.3,105,104
CN(C)c1nc(N(C)C)nc(N(C)C)n1 [Altretamine] (1000 nM),100,107,101,111,102,103,113,90.7,118,98.1,78,80.3,105,99.7
CN(C)c1nc(N(C)C)nc(N(C)C)n1 [Altretamine] (10000 nM),102,97.2,91,109,87.6,98.3,109,103,104,112,102,97.5,105,96.6
O=C(/C=C/c1cccc(S(=O)(=O)Nc2ccccc2)c1)NO [Belinostat] (1000 nM),65.2,129,66.4,50.8,51.1,75.8,100,86.1,117,77.3,70,79.3,99.5,78.5
O=C(/C=C/c1cccc(S(=O)(=O)Nc2ccccc2)c1)NO [Belinostat] (10000 nM),21.2,103,26.6,-15.2,-19.3,76,79.7,93.8,80.3,37.3,54.6,112,88.7,62.1
O=P1(N(CCCl)CCCl)NCCCO1 (stereo not drawn) [Cyclophosphamide] (4000 nM),100,98.7,104,112,100,102,–,105,124,62.1,86.7,97.3,105,94.8
O=P1(N(CCCl)CCCl)NCCCO1 (stereo not drawn) [Cyclophosphamide] (40000 nM),99.1,100,102,105,92.4,100,71.3,107,102,50.5,76.1,105,106,102
C=C1C[C@@H]2[C@H](CC[C@]3(C)C(=O)CC[C@@H]23)[C@@]2(C)C=CC(=O)C=C12 [Exemestane] (1000 nM),97.2,113,96.9,106,99,109,108,108,121,–,112,95.1,112,100
C=C1C[C@@H]2[C@H](CC[C@]3(C)C(=O)CC[C@@H]23)[C@@]2(C)C=CC(=O)C=C12 [Exemestane] (10000 nM),105,81.2,106,103,71.2,106,112,112,115,117,111,90,106,86.2
COc1cc2ncnc(Nc3ccc(F)c(Cl)c3)c2cc1OCCCN1CCOCC1 [Gefitinib] (1000 nM),91,123,89.8,108,79.5,101,83.2,97.8,123,95.9,99.2,91.5,98.3,65.4
COc1cc2ncnc(Nc3ccc(F)c(Cl)c3)c2cc1OCCCN1CCOCC1 [Gefitinib] (10000 nM),17.4,114,48.3,104,45.8,96.9,113,96.9,98.2,102,82.9,98.4,79,104
O=C(Nc1ccncc1)C(=O)c1cn(Cc2ccc(Cl)cc2)c2ccccc12 [Indibulin] (1000 nM),92.1,117,96.3,40.5,48.8,101,93.6,104,68.1,94.6,87.2,80.4,106,71.8
O=C(Nc1ccncc1)C(=O)c1cn(Cc2ccc(Cl)cc2)c2ccccc12 [Indibulin] (10000 nM),81.4,95.4,65.3,-2.59,16.7,106,121,105,99,76.3,84,93.6,105,72.9
NC(=O)c1ccc(I)c([N+](=O)[O-])c1 [Iniparib] (1000 nM),94.6,121,82.5,90.7,101,95.2,101,89,63.7,56.3,81.6,93.9,88.2,96.7
NC(=O)c1ccc(I)c([N+](=O)[O-])c1 [Iniparib] (10000 nM),89.9,113,101,83.7,142,94.3,–,100,107,–,77.3,77.5,99.6,95.6
CCc1c2c(nc3ccc(OC(=O)N4CCC(N5CCCCC5)CC4)cc13)-c1cc3c(c(=O)n1C2)COC(=O)[C@]3(O)CC [Irinotecan] (1000 nM),103,121,29.8,61.9,93.1,99.1,96.6,99.1,123,81.9,–,44.5,107,101
CCc1c2c(nc3ccc(OC(=O)N4CCC(N5CCCCC5)CC4)cc13)-c1cc3c(c(=O)n1C2)COC(=O)[C@]3(O)CC [Irinotecan] (10000 nM),102,107,44.4,-10.4,64.6,84.8,95.2,87,55.9,104,100,97.1,109,103
Oc1ccc2c(c1)CC[C@H](c1ccccc1)[C@@H]2c1ccc(OCCN2CCCC2)cc1 [Lasofoxifene] (100 nM),103,113,62.9,123,82.2,105,–,95.2,113,84.9,111,104,88,–
Oc1ccc2c(c1)CC[C@H](c1ccccc1)[C@@H]2c1ccc(OCCN2CCCC2)cc1 [Lasofoxifene] (1000 nM),99.8,118,103,105,69.3,102,112,111,72.2,68.7,67.1,109,104,95.5
Cc1ccc(NC(=O)c2ccc(CN3CCN(C)CC3)cc2)cc1Nc1nc(-c2cccnc2)cs1 [Masitinib] (1000 nM),102,110,97.3,103,98.9,100,99.5,101,113,97.8,103,68.7,102,89.7
Cc1ccc(NC(=O)c2ccc(CN3CCN(C)CC3)cc2)cc1Nc1nc(-c2cccnc2)cs1 [Masitinib] (10000 nM),53.3,109,101,74.2,76.8,100,96.5,67.6,88.7,70.7,90.8,31.8,87.1,96.5
O=C(Nc1cccnc1)N1CCC(Cc2cccc(Oc3ccc(C(F)(F)F)cn3)c2)CC1 [PF-3845] (1000 nM),102,107,107,117,106,108,97.7,108,124,115,115,108,108,102
COCC1(CO)C(=O)C2CCN1CC2 (stereo not drawn) [Prima-1 Met] (10000 nM),101,63.4,99.3,115,74.2,107,93,108,–,117,106,62.3,104,93.1
CNC(=O)c1cc(Oc2ccc(NC(=O)Nc3ccc(Cl)c(C(F)(F)F)c3)c(F)c2)ccn1 [Regorafenib] (1000 nM),101,116,103,87.7,103,102,–,103,122,110,101,108,107,102
c1ccc2c(CCNc3ccc(Nc4ccncc4)cc3)c[nH]c2c1 [Serdemetan] (1000 nM),99.5,124,73.4,-44.2,102,94,–,89.1,–,92.3,96.9,81.8,102,97.8
CN(C)CCOc1ccc(/C(=C(/CCCl)c2ccccc2)c2ccccc2)cc1 [Toremifene] (10000 nM),22.9,82,59.6,104,79.9,94.6,–,80.3,-3.77,103,69.2,91.7,86.4,94.7
